Reference: ChEMBL document CHEMBL5291721, “A preclinical secondary pharmacology resource illuminates target-adverse drug reaction associations of marketed drugs” (Nat Commun, 2023)
“And” between values parts separate entries of the source, which are not always exact repeats. Equal values may be shown once.

Experiments:
[1] = biological target: 3',5'-cyclic-AMP phosphodiesterase 4D (Homo sapiens, UniProt Q08499); assay type: functional
Glucocorticoid receptor = biological target: T1, Glucocorticoid receptor (Homo sapiens, UniProt P04150)
T1 sequence (P04150 whole entry): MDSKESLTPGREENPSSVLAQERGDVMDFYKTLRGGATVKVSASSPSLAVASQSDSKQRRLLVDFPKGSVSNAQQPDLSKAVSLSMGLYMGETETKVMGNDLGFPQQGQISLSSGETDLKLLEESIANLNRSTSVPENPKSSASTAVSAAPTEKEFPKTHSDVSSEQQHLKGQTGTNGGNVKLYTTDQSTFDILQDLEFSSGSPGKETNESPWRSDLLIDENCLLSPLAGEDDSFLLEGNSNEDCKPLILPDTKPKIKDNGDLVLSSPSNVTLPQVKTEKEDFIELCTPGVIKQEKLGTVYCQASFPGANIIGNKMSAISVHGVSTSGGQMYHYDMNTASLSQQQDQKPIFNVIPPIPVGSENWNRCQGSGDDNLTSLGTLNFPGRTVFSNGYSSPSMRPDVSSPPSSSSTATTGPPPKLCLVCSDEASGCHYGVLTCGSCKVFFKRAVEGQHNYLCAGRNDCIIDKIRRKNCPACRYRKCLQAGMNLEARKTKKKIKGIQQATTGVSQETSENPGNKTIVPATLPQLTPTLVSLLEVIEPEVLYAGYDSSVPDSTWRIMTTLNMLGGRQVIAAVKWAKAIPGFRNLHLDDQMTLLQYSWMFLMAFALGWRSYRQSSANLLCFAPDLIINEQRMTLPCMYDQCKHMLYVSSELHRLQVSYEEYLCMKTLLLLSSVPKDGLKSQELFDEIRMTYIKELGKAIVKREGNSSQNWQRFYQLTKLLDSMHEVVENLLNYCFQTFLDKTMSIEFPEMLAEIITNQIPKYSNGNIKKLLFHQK

[2] = biological target: T2, 5-hydroxytryptamine receptor 3A (Homo sapiens, UniProt P46098); assay type: functional
T2 sequence (P46098 whole entry): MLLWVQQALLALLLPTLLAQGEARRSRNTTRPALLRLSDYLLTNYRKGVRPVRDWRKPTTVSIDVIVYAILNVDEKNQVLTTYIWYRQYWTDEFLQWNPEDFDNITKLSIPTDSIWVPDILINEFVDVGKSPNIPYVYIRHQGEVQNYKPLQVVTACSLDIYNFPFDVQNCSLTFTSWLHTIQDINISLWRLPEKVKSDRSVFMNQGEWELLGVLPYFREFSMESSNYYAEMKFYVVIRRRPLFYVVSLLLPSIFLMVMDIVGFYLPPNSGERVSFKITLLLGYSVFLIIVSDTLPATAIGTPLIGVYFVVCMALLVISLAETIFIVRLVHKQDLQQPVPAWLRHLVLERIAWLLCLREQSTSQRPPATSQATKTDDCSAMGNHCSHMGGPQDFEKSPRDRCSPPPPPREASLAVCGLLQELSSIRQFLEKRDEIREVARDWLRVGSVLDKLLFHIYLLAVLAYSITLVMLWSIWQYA

[3] = biological target: T3, Alpha-1A adrenergic receptor (Homo sapiens, UniProt P35348); assay type: functional, cell-based
T3 sequence (P35348 whole entry): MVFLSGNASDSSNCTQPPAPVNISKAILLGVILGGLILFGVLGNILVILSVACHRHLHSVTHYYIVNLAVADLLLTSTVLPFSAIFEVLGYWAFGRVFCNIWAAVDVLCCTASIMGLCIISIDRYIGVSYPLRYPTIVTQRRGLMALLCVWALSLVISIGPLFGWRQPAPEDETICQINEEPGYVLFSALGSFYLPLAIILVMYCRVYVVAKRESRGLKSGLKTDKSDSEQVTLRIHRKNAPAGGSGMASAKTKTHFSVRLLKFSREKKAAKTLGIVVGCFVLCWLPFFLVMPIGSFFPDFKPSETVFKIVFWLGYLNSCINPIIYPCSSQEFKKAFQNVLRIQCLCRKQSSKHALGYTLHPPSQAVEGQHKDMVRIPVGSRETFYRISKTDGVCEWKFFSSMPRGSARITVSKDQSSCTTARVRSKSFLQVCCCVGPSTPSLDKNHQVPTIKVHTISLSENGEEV

[4] = biological target: T4, Alpha-2A adrenergic receptor (Homo sapiens, UniProt P08913); assay type: functional, cell-based
T4 sequence (P08913 whole entry): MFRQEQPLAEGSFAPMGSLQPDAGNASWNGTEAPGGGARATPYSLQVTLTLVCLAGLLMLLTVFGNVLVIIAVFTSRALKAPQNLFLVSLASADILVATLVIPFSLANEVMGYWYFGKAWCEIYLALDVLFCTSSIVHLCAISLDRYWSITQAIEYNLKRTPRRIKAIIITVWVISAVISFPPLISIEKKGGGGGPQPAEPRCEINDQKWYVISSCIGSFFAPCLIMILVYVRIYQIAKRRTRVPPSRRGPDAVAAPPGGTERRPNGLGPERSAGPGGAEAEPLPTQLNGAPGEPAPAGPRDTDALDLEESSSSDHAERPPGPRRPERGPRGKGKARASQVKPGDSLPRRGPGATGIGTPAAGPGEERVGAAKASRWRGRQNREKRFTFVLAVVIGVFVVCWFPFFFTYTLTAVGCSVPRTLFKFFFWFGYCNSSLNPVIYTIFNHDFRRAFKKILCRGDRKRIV

Histamine H3 receptor = Histamine H3 receptor (Homo sapiens, UniProt Q9Y5N1)
[5] = biological target: T5, Equilibrative nucleoside transporter 1 (Homo sapiens, UniProt Q99808)
T5 sequence (Q99808 whole entry): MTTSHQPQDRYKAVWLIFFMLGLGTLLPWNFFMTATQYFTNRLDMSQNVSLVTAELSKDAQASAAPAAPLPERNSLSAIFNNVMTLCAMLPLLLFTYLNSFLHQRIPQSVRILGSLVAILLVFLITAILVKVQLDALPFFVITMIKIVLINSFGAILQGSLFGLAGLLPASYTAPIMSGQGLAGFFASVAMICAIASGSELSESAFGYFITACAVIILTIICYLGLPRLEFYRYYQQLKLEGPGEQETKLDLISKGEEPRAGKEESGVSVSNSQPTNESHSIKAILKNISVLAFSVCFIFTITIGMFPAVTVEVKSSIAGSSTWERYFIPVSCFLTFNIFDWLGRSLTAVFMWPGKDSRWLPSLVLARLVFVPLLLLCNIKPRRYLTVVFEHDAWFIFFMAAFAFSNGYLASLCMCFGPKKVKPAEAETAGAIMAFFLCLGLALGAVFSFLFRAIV
Note: assay procedure not described here.

Histamine H3 receptor, sequence (Q9Y5N1 whole entry): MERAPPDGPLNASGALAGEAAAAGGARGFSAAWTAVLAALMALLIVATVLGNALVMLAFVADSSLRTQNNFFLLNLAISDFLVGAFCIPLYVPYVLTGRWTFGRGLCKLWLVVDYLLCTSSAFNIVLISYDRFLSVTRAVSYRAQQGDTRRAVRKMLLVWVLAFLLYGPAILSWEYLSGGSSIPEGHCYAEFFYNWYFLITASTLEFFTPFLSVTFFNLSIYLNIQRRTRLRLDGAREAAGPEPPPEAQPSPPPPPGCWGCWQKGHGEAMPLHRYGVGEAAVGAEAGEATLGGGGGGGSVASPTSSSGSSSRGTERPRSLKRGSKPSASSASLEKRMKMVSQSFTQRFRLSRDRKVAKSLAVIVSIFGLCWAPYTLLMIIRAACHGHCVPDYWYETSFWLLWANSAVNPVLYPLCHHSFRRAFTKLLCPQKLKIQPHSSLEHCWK
3',5'-cyclic-AMP phosphodiesterase 4D, sequence (Q08499 whole entry): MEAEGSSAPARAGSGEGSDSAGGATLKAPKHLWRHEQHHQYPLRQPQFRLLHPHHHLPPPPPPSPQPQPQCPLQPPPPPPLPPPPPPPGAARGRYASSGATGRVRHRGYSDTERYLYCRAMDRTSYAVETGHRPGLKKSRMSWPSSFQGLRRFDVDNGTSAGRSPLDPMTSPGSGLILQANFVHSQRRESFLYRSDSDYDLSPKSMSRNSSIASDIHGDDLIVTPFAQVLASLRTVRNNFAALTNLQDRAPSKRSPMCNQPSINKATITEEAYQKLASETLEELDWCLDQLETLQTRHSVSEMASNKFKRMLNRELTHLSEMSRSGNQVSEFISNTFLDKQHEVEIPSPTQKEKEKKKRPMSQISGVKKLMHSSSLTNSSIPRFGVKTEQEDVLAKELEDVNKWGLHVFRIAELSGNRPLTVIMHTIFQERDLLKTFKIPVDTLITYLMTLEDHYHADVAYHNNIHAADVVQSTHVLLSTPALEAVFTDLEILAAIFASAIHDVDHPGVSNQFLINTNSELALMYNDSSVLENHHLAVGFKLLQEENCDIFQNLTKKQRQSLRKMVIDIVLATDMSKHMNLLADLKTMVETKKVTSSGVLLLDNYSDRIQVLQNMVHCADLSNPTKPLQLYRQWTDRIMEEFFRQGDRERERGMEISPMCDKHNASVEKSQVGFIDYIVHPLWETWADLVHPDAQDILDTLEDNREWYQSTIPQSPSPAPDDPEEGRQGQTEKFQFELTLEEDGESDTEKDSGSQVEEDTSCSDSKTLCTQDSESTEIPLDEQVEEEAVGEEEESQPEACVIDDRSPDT

Row | Structure (SMILES) | AC50 [1] | AC50 (Glucocorticoid receptor) | AC50 [2] | AC50 [3] | AC50 [4] | AC50 (Histamine H3 receptor) | AC50 [5]
1 | Clc1ccc(CCCOCCCN2CCCCC2)cc1 [PITOLISANT] | > 30 µM | > 30 µM | > 30 µM | > 30 µM |  |  | 
2 | CN1C(=O)OC(C)(C)C1=O [TRIMETHADIONE] | > 30 µM | > 10 µM | > 30 µM |  | > 10 µM | > 10 µM | > 10 µM
3 | CO[C@@H]1[C@@H](O[C@@H]2O[C@H](C)[C@@H](O[C@H]3C[C@@](C)(O)[C@@H](OC(=O)CC(C)C)[C@H](C)O3)[C@H](N(C)C)[C@H]2O)[C@@H](CC=O)C[C@@H](C)[C@@H](O)/C=C/C=C/C[C@@H](C)OC(=O)C[C@H]1OC(C)=O [JOSAMYCIN] | > 30 µM | > 10 µM | > 30 µM |  | > 10 µM |  | > 10 µM
4 | O=C(O)C[C@H](O)C[C@H](O)/C=C/c1c(C2CC2)nc2ccccc2c1-c1ccc(F)cc1 [PITAVASTATIN] | 0.93 µM and 0.67 µM | > 10 µM | > 30 µM | > 30 µM | > 10 µM |  | > 10 µM
5 | Cc1cccc(C(C)c2cnc[nH]2)c1C (stereo not drawn) [MEDETOMIDINE] | > 30 µM | > 30 µM | > 30 µM |  |  | > 30 µM | > 30 µM
6 | NCC[C@H](O)C(=O)N[C@@H]1C[C@H](N)[C@@H](O[C@H]2O[C@H](CN)[C@@H](O)[C@H](O)[C@H]2O)[C@H](O)[C@H]1O[C@H]1O[C@H](CO)[C@@H](O)[C@H](N)[C@H]1O [AMIKACIN] | > 30 µM | > 10 µM | > 30 µM |  | > 10 µM |  | > 10 µM
7 | C=CCC1(C(C)CC)C(=O)NC(=O)NC1=O (stereo not drawn) [TALBUTAL] | > 30 µM | > 10 µM | > 30 µM |  | > 10 µM | > 10 µM | > 10 µM
8 | CC1(C)O[C@@H]2C[C@H]3[C@@H]4CCC5=CC(=O)C=C[C@]5(C)[C@H]4[C@@H](O)C[C@]3(C)[C@]2(C(=O)CO)O1 [DESONIDE] | > 30 µM | 0.016 µM | > 30 µM | > 30 µM | > 10 µM |  | > 10 µM
9 | COC(=O)[C@H]1[C@H]2C[C@@H]3c4[nH]c5cc(OC)ccc5c4CCN3C[C@H]2C[C@@H](OC(=O)/C=C/c2cc(OC)c(OC)c(OC)c2)[C@@H]1OC [RESCINNAMINE] | > 30 µM | > 10 µM | > 30 µM |  | > 10 µM |  | > 30 µM
10 | CCc1c(Cl)c(O)c(Cl)c(O)c1C(=O)O[C@H]1[C@H](O)[C@H](OC)[C@H](OC/C2=C\C=C\C[C@H](O)/C(C)=C/[C@H](CC)[C@@H](O[C@@H]3OC(C)(C)[C@@H](OC(=O)C(C)C)[C@H](O)[C@@H]3O)/C(C)=C/C(C)=C/C[C@@H]([C@@H](C)O)OC2=O)O[C@@H]1C [FIDAXOMICIN] | > 30 µM | > 30 µM | > 10 µM |  |  | > 10 µM | 3.6 µM
11 | Cc1cc(O)c(C(=O)N[C@@H](C(=O)N[C@@H]2C(=O)N3C(C(=O)O)=C(CSc4nnnn4C)CS[C@H]23)c2ccc(O)cc2)cn1 [CEFPIRAMIDE] | > 30 µM | > 30 µM | > 30 µM |  | > 30 µM | > 30 µM | > 30 µM
12 | C[C@H](N)[C@H](O)c1cccc(O)c1 [METARAMINOL] | > 30 µM | > 10 µM | > 30 µM |  | > 10 µM |  | > 10 µM
13 | CC(C)(C)c1cc(C(C)(C)C)c(NC(=O)c2c[nH]c3ccccc3c2=O)cc1O [IVACAFTOR] | > 30 µM | > 30 µM | > 30 µM |  | > 10 µM | > 10 µM | > 30 µM
14 | COC(=O)C1=C(C)NC(C)=C(C(=O)OC(C)(C)CN(C)CCC(c2ccccc2)c2ccccc2)C1c1cccc([N+](=O)[O-])c1 (stereo not drawn) [LERCANIDIPINE] | > 30 µM | > 30 µM | > 30 µM |  | > 30 µM |  | > 30 µM
15 | C[C@]12CC[C@H]3[C@@H](CCC4=CC(=O)CC[C@@]43C)[C@@H]1CC[C@@H]2O [TESTOSTERONE] | > 30 µM | 0.246 µM | > 30 µM |  | > 10 µM |  | > 10 µM
16 | CNS(=O)(=O)Cc1ccc2[nH]cc(CCN(C)C)c2c1 | > 30 µM | > 30 µM |  | > 30 µM | > 30 µM |  | > 30 µM
17 | CCCC(=O)O[C@]1(C(=O)CO)CC[C@H]2[C@@H]3CCC4=CC(=O)CC[C@]4(C)[C@H]3[C@@H](O)C[C@@]21C [HYDROCORTISONE BUTYRATE] | > 30 µM | 0.008 µM | > 30 µM |  | > 10 µM |  | > 10 µM
18 | CC(C[N+](C)(C)C)OC(N)=O (stereo not drawn) [BETHANECHOL] | > 30 µM | > 10 µM | > 30 µM |  | > 10 µM | > 10 µM | > 10 µM
19 | O=C(O)[C@H](CC(=O)N1C[C@H]2CCCC[C@H]2C1)Cc1ccccc1 [MITIGLINIDE] | > 30 µM | > 10 µM | > 30 µM |  | > 10 µM |  | > 10 µM
20 | O=C(O)/C=C/c1ccc(Cn2ccnc2)cc1 [OZAGREL] | > 30 µM | > 30 µM | > 30 µM |  | > 30 µM | > 30 µM | 
21 | C[C@]1(O)CC[C@H]2[C@@H]3CCC4=CC(=O)CC[C@]4(C)[C@@]3(F)[C@@H](O)C[C@@]21C [FLUOXYMESTERONE] | > 30 µM | 0.088 µM | > 30 µM |  | > 10 µM |  | > 10 µM
22 | CC(C)Cn1cnc2c(N)nc3ccccc3c21 [IMIQUIMOD] | 4.03 µM | > 10 µM | > 30 µM |  | > 10 µM | > 10 µM | > 30 µM
23 | CCCN(CCC)C(=O)C(CCC(=O)O)NC(=O)c1ccccc1 (stereo not drawn) [PROGLUMIDE] | > 30 µM | > 30 µM | > 30 µM |  | > 10 µM | > 30 µM | > 30 µM
